Results as given in ChEMBL document CHEMBL5604062, “ASAP - ZIKV NS2B-NS3 protease fluorescence dose response” (2024).
Values joined by “and” are separate entries in the source; they are usually repeats but may differ in a detail not shown here. Identical values can stand only once.

Target: Nonstructural protein 3 (Zika virus, UniProt A0A024AXB9)
Experiment: Functional biochemical assay to identify treatments for viral infectious disease that targets Zika NS2B-NS3 protease. Utilizing a direct enzyme activity measurement method, reading the fluorescence intensity is used to characterize the relative potency of inhibitors as IC50.
Design: species or system PRVABC59

Chain of Nonstructural protein 3 (A0A024AXB9 whole entry): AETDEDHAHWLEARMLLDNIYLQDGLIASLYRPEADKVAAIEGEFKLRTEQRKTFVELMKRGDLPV

`O=C(Nc1cccc2c1CNC2)c1cc(Cl)cc2[nH]ncc12` was tested, and the IC50 was > 25 µM.

For `Cc1nc(N2CCOCC2)sc1CC(=O)Nc1cccc(CN)c1`, the IC50 was > 99.5 µM.

`CCCC[C@H](N)C(=O)N[C@@H](C(=O)NCc1ccc(C(N)=O)cc1)c1ccc(OCc2ccccc2)cc1` was tested, and the IC50 was > 99.5 µM.

With `O=C(Nc1ccc2c(c1)CNC2)c1cc(Cl)cc2cc[nH]c12` the IC50 was 0.07 µM and 0.065 µM.

`NCc1cccc(NC(=O)c2ccc(OCc3ccccc3)cc2)c1` was tested, and the IC50 was > 99.5 µM.

With `O=C(O)C1CCC2(CC1)CC(Cc1c[nH]c3ccc(Cl)cc13)C2` (configuration not stated) the IC50 was > 99.5 µM.

With `Cn1nc2c(c1NC(=O)c1cc(Cl)cc(NC(=O)OCc3ccccc3)c1)CNC2` the IC50 was > 99.5 µM.

In the case of `NC(=O)c1ccccc1NS(=O)(=O)c1ccc(Oc2ccccc2Cl)cc1`, the IC50 is reported as > 99.5 µM.

For `N[C@@H]1CC[C@H](CCNC(=O)c2cc(Cl)cc(NC(=O)OCc3ccccc3)c2)C1`, the IC50 was 61 µM.

With `CCOCCNC(=O)[C@H](Nc1ccc2c(c1)CNC2)c1cc(Cl)cc2[nH]ncc12` the IC50 was 0.06 µM and 0.042 µM.

In the case of `O=Cc1ccc(F)c(C(=O)N2CCN(C3=NCCCN3)CC2)c1`, the IC50 is reported as > 99.5 µM.

`O=C(Nc1ccc2c(c1)CNC2)c1cc2ccccc2[nH]1` showed an IC50 of 24.4 µM.

In the case of `O=C(N[C@@H](C(=O)NCc1cccc2c1CCNC2)c1ccc(OCc2ccccc2)cc1)OCc1ccccc1`, the IC50 is reported as 39.4 µM.

For `CC(C)c1noc2nc(C3CC3)cc(C(=O)Nc3cccc(CN)c3)c12`, the IC50 was > 99.5 µM.

`O=C(N[C@@H](C(=O)NCc1ccc(CN2CCCC2)cc1)c1ccc(OCc2ccccc2)cc1)OCc1ccccc1` was tested, and the IC50 was > 99.5 µM.

`NCc1cccc(NC(=O)c2c(C(F)F)nc3cnccn23)c1` was tested, and the IC50 was > 99.5 µM.

In the case of `O=C(O)c1cc(Cl)ccc1NS(=O)(=O)c1ccc(OCc2nnnn2C2CCC2)cc1`, the IC50 is reported as > 99.5 µM.

With `O=C(Nc1ccc2c(c1)CNC2)c1cccc2cn[nH]c12` the IC50 was 0.207 µM and 0.615 µM.

For `CNC(=O)C(=O)/C=C/c1ccccc1`, the IC50 was > 198 µM.

`O=C(NCCCn1ccnc1)[C@H](Nc1ccc2c(c1)CNC2)c1cc(Cl)cc(C2CC2)c1` showed an IC50 of 0.124 µM.

With `O=C(N[C@@H](C(=O)Nc1ccc2c(n1)CNC2)c1ccc(OCc2ccccc2)cc1)OCc1ccccc1` the IC50 was > 99.5 µM.

With `COCc1cc(Cl)cc(C(=O)Nc2cccc(CN)c2)c1` the IC50 was 26.9 µM.

For `O=C(Nc1ccc2c(c1)CNC2)c1cccc2nc(C(F)(F)F)[nH]c12`, the IC50 was 4.03 µM.

In the case of `O=C(NCC(F)F)[C@H](Nc1ccc2c(c1)CNC2)c1cc(Br)cc2[nH]ccc12`, the IC50 is reported as 0.077 µM and 0.044 µM.

`N#Cc1csc2cc(C(=O)Nc3ccc4c(c3)CNC4)ccc12` gave an IC50 of 0.466 µM.

In the case of `c1cnc2c(c1)CC[C@@H]2NCc1n[nH]c2ccccc12`, the IC50 is reported as > 99.5 µM.

`CC(C)CNC(=O)[C@H](Nc1cccc(-c2nnn[nH]2)c1)c1cc(Cl)cc(C2CC2)c1` was tested, and the IC50 was > 99.5 µM.

In the case of `Cc1cc(C)c(C(=O)N2C[C@H]3CN(C)CC[C@@]3(CO)C2)cc1C=O`, the IC50 is reported as > 99.5 µM.

With `Cc1nccn1-c1ccc(Cl)cc1C(=O)Nc1cccc(CN)c1` the IC50 was > 99.5 µM.

For `N[C@H]1CCc2cc(-c3ccn(-c4ccccc4)n3)ccc2C1`, the IC50 was > 99.5 µM.

With `CC(=O)Nc1cc(Cl)cc(C(=O)Nc2cccc(CN)c2)c1` the IC50 was 3.52 µM.

For `O=C(NCCOCC1CC1)[C@H](Nc1ccc2c(c1)CNC2)c1cc(Cl)cc(C2CC2)c1`, the IC50 was 0.079 µM and 0.05 µM.

For `CCn1c(=O)c(N2CC[C@H](CO)C2)nc2ccc(C(N)=O)cc21`, the IC50 was > 99.5 µM.

`CN(C)[C@H]1CCc2cc(-c3cccc(N4CCNC4=O)c3)ccc2NC1` was tested, and the IC50 was > 99.5 µM.

`NCc1cccc(NC(=O)[C@@H](Cc2c[nH]c3ccccc23)NC(=O)OCc2ccccc2)c1` was tested, and the IC50 was > 99.5 µM.

In the case of `COC(=O)c1cc(Cl)ccc1NS(=O)(=O)c1ccc(Cl)nc1`, the IC50 is reported as > 99.5 µM.

Compound `Clc1cccc([C@H](C#Cc2ccccc2)Nc2cccc(-c3nn[nH]n3)c2)c1` has an IC50 of 16.8 µM.

For `NCc1cccc(NC(=O)C[C@H](NC(=O)OCc2ccccc2)c2ccc(Br)cc2)c1`, the IC50 was 48.7 µM.

Work on `O=C(Nc1ccc2c(c1)CNC2)c1cccnc1` yielded an IC50 of 16.6 µM.

For `N#C[C@H](Nc1cc(Cl)cc(NC(=O)OCc2ccccc2)c1)c1ccc(-c2nn[nH]n2)cc1`, the IC50 was 16.8 µM.

`Cn1nnc(S(=O)(=O)N2CCC([C@H](NC(=O)OCc3ccccc3)C(=O)Nc3cccc(CN)c3)CC2)n1` was tested, and the IC50 was > 99.5 µM.

In the case of `O=C(Nc1cc(-c2cccnc2)ccn1)c1cc2n(n1)CC(F)(F)C2`, the IC50 is reported as > 25 µM.

`Cc1cc(N2CCC(NS(=O)(=O)c3ccc(Cl)cc3C(=O)O)CC2)nc(C)n1` was tested, and the IC50 was > 99.5 µM.

In the case of `N[C@H]1CC[C@H](NC(=O)c2cc(Cl)cc(NC(=O)OCc3ccccc3)c2)C1`, the IC50 is reported as 69.7 µM.

Compound `O=C(O)c1cc(Cl)c(F)cc1NS(=O)(=O)c1ccc(Oc2ccccc2Cl)cc1` has an IC50 of 10.4 µM.

In the case of `Cn1cc(-c2cc(CN)cc([C@@H]3C[C@H]3c3cc(Cl)cc(NC(=O)OCc4ccccc4)c3)c2)cn1`, the IC50 is reported as 13.3 µM.

With `CCn1c(=O)c(N2C[C@H]3COC(C)(C)OC[C@H]3C2)nc2ccccc21` the IC50 was > 99.5 µM.

In the case of `C[C@@H](NCc1c[nH]c2ccccc12)c1cscn1`, the IC50 is reported as > 99.5 µM.

Work on `NCCNS(=O)(=O)c1ccc(NC(=O)c2cc(Cl)cc(NC(=O)OCc3ccccc3)c2)cc1` yielded an IC50 of 10.9 µM.

In the case of `CCn1c(=O)c(N2C[C@H]3C[C@@]3(C(F)F)C2)nc2ccccc21`, the IC50 is reported as > 99.5 µM.

With `O=C(Nc1cc([C@H]2CCOC2)ccn1)c1cc(F)cc2[nH]ncc12` the IC50 was > 25 µM.

`O=C(Nc1cc(Cl)cc(C(=O)Nc2ccc(OC3CNC3)cc2)c1)OCc1ccccc1` showed an IC50 of 5.64 µM.
